Experimental data: patent publication US7396837B2, “Antitumoral analogs of lamellarins” (Pharma Mar, S.A.U., priority 2002, dated 2008)
Entries after “also recorded” stand apart in the source; their conditions may differ.

Experiments:
human topoisomerase I = target: T1, human topoisomerase I (Homo sapiens, UniProt P11387); assay: Topoisomerase I cleavage of radiolabeled 117-bp DNA fragment; format: biochemical
T1 sequence (P11387 1-765): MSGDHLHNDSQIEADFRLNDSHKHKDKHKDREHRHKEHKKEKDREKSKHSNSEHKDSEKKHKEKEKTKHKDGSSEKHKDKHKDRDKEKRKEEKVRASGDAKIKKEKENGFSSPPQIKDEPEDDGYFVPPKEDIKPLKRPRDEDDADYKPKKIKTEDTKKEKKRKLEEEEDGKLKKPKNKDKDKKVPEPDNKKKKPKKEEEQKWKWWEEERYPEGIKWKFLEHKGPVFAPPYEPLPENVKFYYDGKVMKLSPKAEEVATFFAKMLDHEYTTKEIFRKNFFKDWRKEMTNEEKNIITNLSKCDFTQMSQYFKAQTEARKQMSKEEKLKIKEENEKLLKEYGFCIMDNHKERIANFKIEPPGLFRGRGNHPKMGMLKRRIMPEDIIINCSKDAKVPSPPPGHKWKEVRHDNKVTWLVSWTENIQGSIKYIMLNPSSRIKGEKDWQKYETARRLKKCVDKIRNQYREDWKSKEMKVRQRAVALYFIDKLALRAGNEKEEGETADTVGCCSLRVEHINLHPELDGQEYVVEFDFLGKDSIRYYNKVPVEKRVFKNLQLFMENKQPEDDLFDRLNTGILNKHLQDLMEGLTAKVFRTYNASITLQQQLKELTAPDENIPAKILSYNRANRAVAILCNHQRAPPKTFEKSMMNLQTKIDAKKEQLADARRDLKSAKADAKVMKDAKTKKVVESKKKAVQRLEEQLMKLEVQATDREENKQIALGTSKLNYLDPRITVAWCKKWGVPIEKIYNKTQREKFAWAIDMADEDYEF
Description: Two assays, based on DNA relaxation and DNA cleavage (Bailly, C. DNA relaxation and cleavage assays to study topoisomerase I inhibitors. Methods Enzymol. 2001, 340, 610-623) were used evaluate the effects of the lamellarin analogs on the catalytic activity of human topoisomerase I.
A second assay, based on the cleavage of a radiolabeled DNA substrate by topoisomerase I, was used to confirm that the cationic lamellarin derivatives do effectively function as topoisomerase I poisons. A 117-bp DNA restriction fragment uniquely end-labeled at the 3′ end was subjected to cleavage by topoisomerase I in the presence of the different compounds and the resulting DNA cleavage products were resolved on sequencing-type polyacrylamide gels. The advantage of this assay is to detect the cleavage sites and to locate their positions with nucleotide resolution, providing thus information on the site selectivity of cleavage.

SKOV-3 = assay: SRB colorimetric cell growth inhibition assay, SKOV-3; format: cell-based; conditions: Homo sapiens
Summary of the method: (§1)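 Growth inhibition (GI), total growth inhibition (TGI, cytostatic) and lethal concentration (LC, cytotoxic) come from an SRB-based colorimetric measure of growth and viability. Data are triplicate-well means ± SD.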

H-MEC-1 = assay: SRB colorimetric cell growth inhibition assay, H-MEC-1; format: cell-based; conditions: Homo sapiens, HMEC-1, H-MEC-1
Summary of the method: as §1

fertilised sea urchin = fertilised sea urchin assay; cited from earlier work

Question: For COc1cc(-c2c3c4cc(OC)c(O)cc4oc(=O)c3n3ccc4cc(O)c(OC)cc4c23)ccc1O [Compound 3, lamellarin D, reference compound], which “topoisomerase I-mediated DNA cleavage sites / cleavage profile” value (human topoisomerase I; 117-bp DNA restriction fragment 3' end-labeled, sequencing-type polyacrylamide gels, listed as LAM-D) is on record?
Answer: T^↓G or C^↓G dinucleotides; also recorded: additional cleavage site at C^↓G73

Question: And the “efficiency of topoisomerase I-mediated DNA cleavage at sites T↓G48 and T↓G81” value (human topoisomerase I; compared with CPT)?
Answer: less efficient than CPT

Question: What about the GI50 (SKOV-3; SK-OV-3, SKOV-3, GI=growth inhibition, read-out: GI50 SKOV-3) of the same compound?
Answer: 53.7 nM

Question: And the IC (TGI) (SKOV-3; SK-OV-3, SKOV-3, total growth inhibition (cytostatic effect), read-out: TGI SKOV-3)?
Answer: 240 nM

Question: What about the GI50 (H-MEC-1; GI=growth inhibition, read-out: GI50 H-MEC-1) of the same compound?
Answer: 113 nM

Question: And the IC (TGI) (H-MEC-1; total growth inhibition (cytostatic effect), read-out: TGI H-MEC-1)?
Answer: 3140 nM

Question: And the “inhibition of cell division” value (fertilised sea urchin)?
Answer: inhibition of cell division
